Test results published in ChEMBL document CHEMBL5247584, “Design, synthesis and evaluation of fused hybrids with acetylcholinesterase inhibiting and Nrf2 activating functions for Alzheimer's disease” (Eur J Med Chem, 2022).
Active and inactive are the calls of the source. No cut-off for these calls is given here.

Tests used:
[1] = tested on: BV-2; assay: Antiinflammatory activity against LPS-injured mouse BV-2 cells assessed as decrease in IL-1beta level at 5 uM by immunofluorescence staining based analysis; assay type: functional, cell-based
[2] = target: Acetylcholinesterase (Electrophorus electricus, UniProt O42275); assay: Inhibition of electric eel AChE using ATC and BTC iodide as substrate preincubated for 5 mins followed by substrate addition and measured after 2 mins by DTNB reagent based assay
[3] = tested on: PC-12; assay: Cytotoxicity against rat PC12 cells assessed as growth inhibition at 5 uM after 24 hrs by MTT assay; assay type: toxicity, cell-based; conditions: pc-12, 24 h
[4] = target: T1, Nuclear factor erythroid 2-related factor 2 (Rattus norvegicus) (UniProt O54968); assay: Activation of Nrf2 pathway in rat PC-12 cells assessed as increase in HO-1 level at 20 uM measured after 6 hrs by Western blot analysis; assay type: cell-based; conditions: PC12, filed as activator
T1 sequence (whole entry): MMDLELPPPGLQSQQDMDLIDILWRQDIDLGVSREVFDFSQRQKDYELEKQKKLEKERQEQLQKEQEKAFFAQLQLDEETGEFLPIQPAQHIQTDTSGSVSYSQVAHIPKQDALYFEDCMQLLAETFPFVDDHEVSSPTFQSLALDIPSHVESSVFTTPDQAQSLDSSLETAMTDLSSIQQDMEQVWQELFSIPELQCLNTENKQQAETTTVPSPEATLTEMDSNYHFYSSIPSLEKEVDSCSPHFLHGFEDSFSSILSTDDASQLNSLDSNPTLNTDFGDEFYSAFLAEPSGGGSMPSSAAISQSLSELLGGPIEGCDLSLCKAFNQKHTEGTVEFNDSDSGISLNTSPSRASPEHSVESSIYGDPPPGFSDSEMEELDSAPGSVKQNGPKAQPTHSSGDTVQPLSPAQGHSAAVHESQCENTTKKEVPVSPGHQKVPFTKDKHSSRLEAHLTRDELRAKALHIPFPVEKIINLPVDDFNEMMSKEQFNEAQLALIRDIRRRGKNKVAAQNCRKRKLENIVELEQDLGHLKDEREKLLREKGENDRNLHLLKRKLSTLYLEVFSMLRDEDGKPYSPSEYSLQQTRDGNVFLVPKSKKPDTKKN

[5] = target: T1, Nuclear factor erythroid 2-related factor 2 (Rattus norvegicus); assay: Activation of Nrf2 pathway in rat PC-12 cells assessed as increase in GCLM level at 20 uM measured after 6 hrs by Western blot analysis; assay type: cell-based; conditions: PC12, filed as activator
[6] = target: T1, Nuclear factor erythroid 2-related factor 2 (Rattus norvegicus); assay: Activation of Nrf2 pathway in rat PC-12 cells assessed as fold increase in Nrf2 expression level at 1 to 20 uM measured at 6 hrs by qRT-PCR analysis; assay type: cell-based; conditions: PC12, filed as activator, dose 1-20 µM
[7] = target: T1, Nuclear factor erythroid 2-related factor 2 (Rattus norvegicus); assay: Activation of Nrf2 pathway in rat PC-12 cells assessed as fold increase in HO-1 expression level at 1 to 20 uM measured at 6 hrs by qRT-PCR analysis; assay type: cell-based; conditions: PC12, filed as activator, dose 1-20 µM
[8] = target: T1, Nuclear factor erythroid 2-related factor 2 (Rattus norvegicus); assay: Activation of Nrf2 pathway in rat PC-12 cells assessed as increase in Nrf2 accumulation in nucleus at 20 uM measured after 1 to 5 hrs by Western blot analysis; assay type: cell-based; conditions: PC12, filed as activator, time 1-5 hrs
[9] = tested on: PC-12; assay: Cytoprotective activity against H2O2-induced cell damage in rat PC12 cells assessed as reduction in cell injury measured after 24 hrs by MTT assay relative to control; assay type: functional, cell-based; conditions: dose 1-20 µM
[10] = tested on: SH-SY5Y; assay: Neuroprotective activity against Abeta1-42-induced human SH-SY5Y cells assessed as reduction in cell damage preinubated for 2 hrs followed by Abeta1-42 induction and measured after 24 hrs by MTT assay; assay type: functional, cell-based; conditions: time 26.0 hrs
[11] = tested on: BV-2; assay: Neuroprotective activity against LPS-induced mouse BV-2 cells assessed as inhibition of ROS production at 1 to 40 uM preincubated for 1 hr followed by LPS stimulation and measured after 24 hrs by DCFH-DA staining based microplate reader anlaysis; assay type: functional, cell-based; conditions: dose 1-40 µM, time 25.0 hrs
[12] = tested on: SH-SY5Y; assay: Neuroprotective activity against Abeta1-42-induced human SH-SY5Y cells assessed as inhibition of ROS production preincubated for 24 hrs followed by Abeta1-42 induction and measured after 24 hrs by DCFH-DA staining based fluorescence microscopic anlaysis; assay type: functional, cell-based; conditions: dose 5.0 µM

Acetylcholinesterase, sequence (O42275 whole entry): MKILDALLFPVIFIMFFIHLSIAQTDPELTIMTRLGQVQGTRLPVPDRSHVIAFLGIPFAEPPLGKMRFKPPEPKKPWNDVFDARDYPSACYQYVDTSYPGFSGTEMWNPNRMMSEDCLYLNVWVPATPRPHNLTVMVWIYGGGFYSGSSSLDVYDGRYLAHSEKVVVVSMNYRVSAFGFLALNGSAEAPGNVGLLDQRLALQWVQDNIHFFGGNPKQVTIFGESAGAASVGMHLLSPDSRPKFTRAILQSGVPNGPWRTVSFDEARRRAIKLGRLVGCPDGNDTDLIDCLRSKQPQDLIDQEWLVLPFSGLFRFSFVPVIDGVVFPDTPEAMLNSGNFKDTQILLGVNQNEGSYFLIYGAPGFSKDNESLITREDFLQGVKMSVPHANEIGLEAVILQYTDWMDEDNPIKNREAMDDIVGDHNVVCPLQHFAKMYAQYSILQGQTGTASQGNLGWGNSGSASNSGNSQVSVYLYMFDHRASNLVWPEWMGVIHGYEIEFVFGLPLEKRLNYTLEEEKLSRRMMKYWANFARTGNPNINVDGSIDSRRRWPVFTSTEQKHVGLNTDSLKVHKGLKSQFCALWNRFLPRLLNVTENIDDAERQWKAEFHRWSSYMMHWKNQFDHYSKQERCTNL

**Q.** With `Cc1ccc(-c2noc(-c3cccc(OCC4CCN(Cc5cccc(F)c5)CC4)c3)n2)cn1` as the compound, how does the Activity [1] read?
**A.** inactive

**Q.** And the IC50 [2]?
**A.** 0.07 µM

**Q.** What about the Activity [3] of the same compound?
**A.** Non-Toxic

**Q.** What about the Activity [4] of the same compound?
**A.** Active

**Q.** What about the Activity [5] of the same compound?
**A.** Active

**Q.** What about the fold change (FC) [6] of the same compound?
**A.** 4

**Q.** What about the fold change (FC) [7] of the same compound?
**A.** 4

**Q.** And the Activity [8]?
**A.** Active

**Q.** What about the Activity [9] of the same compound?
**A.** Dose-Dependent Effect

**Q.** What about the Activity [10] of the same compound?
**A.** Active

**Q.** What about the Activity [11] of the same compound?
**A.** Active

**Q.** And the Activity [12]?
**A.** Dose-Dependent Effect
